Data reported in US10390536B2, “Methods, compounds and compositions for repelling insects and/or arachnids” (National Center for Scientific Research “Demokritos”, priority 2013, dated 2019).
Read-outs that look alike come from different tables or passages of the source.

What was measured:
[1] = test system: Anopheles gambiae (Giles) ss strain 16CSS female mosquitoes; experiment: warm body repellence assay (mosquito landings); assay type: in vivo; details: for repellent activity in the warm body assay (in words): candidate compounds, initially 1.0-5.0 μg/cm^2 (about 5-31.5 nmole/cm^2); for median repellency (%) at 20 nmol/cm2: read-out: Median Repellency (%)
Procedure: To test the behavior of female mosquitoes to an essential oil containing OBP binding components, a previously described repellence assay [Kröber et al. (2010). An In Vitro Assay for Testing Mosquito Repellents Employing a Warm Body and Carbon Dioxide as a Behavioral Activator. Journal of the American Mosquito Control Association 26(4) 381-386] was conducted that measures the number of mosquito landings on a warm surface onto which an essential oil containing at least one candidate compound was applied.
To conduct a repellency assay, a selected essential oil or ethanol negative control was applied to a warm body at a dose of about 3.8 μg/cm^2 and allowed to dry for 40 seconds in order to allow evaporation of the solvent before introduction into the test cage with mosquitoes. As positive control for repellence, DEET dissolved in ethanol was applied to the warm body at the same dose. The treated warm body in conjunction with a pulse of carbon dioxide was introduced into the test cage containing fifty Anopheles gambiae (Giles) ss strain 16CSS female mosquitoes that were 4-11 days old and the number of mosquito landings on the warm body occurring within a 2-minute period was counted. Each candidate compound was tested in five different cages (i.e., 250 female mosquitoes) in a randomized design, and the ethanol control and up to four candidate compounds were tested in each cage. Raw data on numbers of landings by mosquitoes were analyzed using a linear mixed model accounting for treatment, experimental day, the individual cage, the number of females per cage and the level of the carbon dioxide pulse in ppm using R (R Development Core Team, 2010) and the packages LME4 (Bates and Maechler, Ime4: Linear mixed-effects models using {S4} classes.{R} package version 0.999375-32, 2009) and NLME (Pinheiro et al, nlme: Linear and Nonlinear Mixed Effects Models, 2010; the R Development Core Team, R: A Language and Environment for Statistical Computing, 2010). Repellent values were calculated from counted landings on treatments versus the overall landings on pooled controls.
To test the behavior of female mosquitoes to a candidate compound identified in Example 5, behavioral assays were made using the identified compounds. The repellent assay was performed as described in Example 3, except that candidate compounds were dissolved in ethanol and tested initially at doses between 1.0 and 5.0 μg/cm^2 (about 5-31.5 nmole/cm^2) and, whenever necessary, at lower and/or higher doses as well. Besides the compounds identified in Example 5, compounds related to these were also tested including ethyl-cinnamate and butyl-cinnamate (Table 4).
To test the behavior of female mosquitoes to various combinations of candidate compounds identified in Example 6, repellence assays were made as in Example 3. These repellent assays were made to compare the effectiveness of the strongest repellent compounds identified in Example 6, including, without limitation, carvacrol, ethyl cinnamate, butyl cinnamate, and cumin alcohol with that of DEET.
The doses tested were 2, 4, 6 10 and 20 nmol/cm^2 for the single compounds. The binary 50:50 mixtures were tested at 2, 6, 10 and 20 nmol/cm^2, with each compound making up half the amount tested, so that, for example, the 2 nmol/cm^2 concentration in column A+B represents 1 nmol/cm^2 of A and 1 nmol/cm^2 of B in a binary mixture. DEET was also tested at 25 nmol (top response) and carvacrol was tested at the additional dose of 2.5 nmol (second from left within its column). As an indication, DEET at 20 nmol/cm^2=3.8 μg/cm^2. Mosquitoes were activated using a puff of CO2 from a gas tank upon introduction of the warm body into the test cage containing 50±5 A. gambiae females and mosquito landings were counted for 2 minutes. Each treatment (dose) was tested using five test cages, i.e. on a total of 250 female A. gambiae. […]

[2] = test system: female A. gambiae antennae; experiment: GC-coupled electroantennogram (GC-EAG) recording; set-up: species or system Anopheles gambiae; details: compounds eluting from GC of essential oils
From the text: Electrophysiological recordings from whole mosquito antenna: Coupling EAG recordings from an A. gambiae antenna to the effluent of a high-resolution gas chromatographic (GC) column permitted the determination of the elution profiles of biologically active components of essential oils showing repellence. Recordings were made from to 4-9 day-old female mosquitoes. The head was excised at the occipital opening and placed on the reference glass electrode containing Hayes mosquito Ringer [Hayes (1953). Determination of a physiological saline for Aedes aegypti (L.). J Econ Entomol 46: 624-627] mounted in a humidified air-stream (90-98% RH; Guerin and Visser (1980). Electroantennogram Responses of the Carrot Fly, Psila rosae, to Volatile Plant Components. Physiological Entomology 5(2): 111-119] and its antenna exposed to compounds eluting from the GC column (Biessamann et al. (2010). The Anopheles gambiae odorant binding protein 1 (AgamOBP1) mediates indole recognition in the antennae of female mosquitoes. PLoS One 5(3): e9471]. The EAG response was recorded via a glass electrode filled with Kaissling sensillum lymph Ringer [Kaissling (1995). Single unit and electroantennogram recordings in insect olfactory organs. In Experimental Cell Biology of Taste and Olfaction. Current Techniques and Protocols, Spielman AlaB, J. G. (ed), 361-386. Boca Raton, Fla.: CRC Press] brought into contact with the terminal antennal segment whose tip was cut off. Only antennae showing an EAG response at least double the noise level to a 1 ml puff of air over 1 μg geranylacetone in a 5 ml stimulus syringe were used for recording EAG responses to the essential oils.
To conduct a GC-EAG analysis, about 2 μg of an essential oil was injected in 1-3 μL of dichloromethane (DCM) onto an apolar capillary column (95% dimethyl polysiloxan with 5% diphenyl polysiloxan, 15 m long, 0.25 mm i.d., 0.10 μm film thickness; BGB Analytik, Switzerland) installed in a 5300 Carlo Erba Instruments chromatograph. Hydrogen was used as carrier gas with the oven held at 40° C. for 3 minutes then heated up 25° C./min to 230° C. and held at the final temperature for 15 min. The column effluent was split (50:50) between the flame ionization detector (FID) of the chromatograph and the mosquito antennal preparation. The EAG signal was fed into an AC/DC amplifier (×100) via a high impedance preamplifier (×10), recorded on the hard disk of a PC via a 16-bit analogue-digital IDAC4 interface (Syntech, Netherlands) and monitored simultaneously with an oscilloscope (Tektronix 5103, USA). Kovats retention indices (KIs) were calculated for the EAG-active compounds present in the extracts and fractions. FIG. 1 illustrates the results obtained using the GC-EAG analysis. […]

[3] = test system: sand fly Lutzomyia longipalpis; experiment: warm body repellence assay with sand flies; assay type: in vivo; details: for Median of landings: 2 minutes, control 48
Procedure: To test the effects of repellent compounds or compositions disclosed herein on other blood-feeding arthropods, a warm body repellence assay (Krober et. al. (2010). An In Vitro Assay for Testing Mosquito Repellents Employing a Warm Body and Carbon Dioxide as a Behavioral Activator. Journal of the American Mosquito Control Association 26(4): 381-386] was conducted using the sand fly Lutzomyia longipalpis (Diptera: Psychodidae), the principal vector of Leishmania (or leismaniasis) in the Americas.
[…] Fifty L. longipalpis sandflies (male:female ratio 1:1) of 3-7 days old were tested during the scotophase under conditions described for A. gambiae in Example 6. The test cages were lined with filter paper. Reduction in the number of landings by L. longipalpis sand fly females on a warm body treated with different test products compared to the control with solvent (ethanol p.a.) alone was used to evaluate repellence. Tests were conducted in complete darkness using IR LEDs to illuminate the warm body. Landings counted during 2 minutes were normalized by experimental day, cage, and number of females by a mixed linear model before testing for differences.

[4] = Anopheles gambiae, 2 min, 20 nmole per cm^2

Molecule | repellent activity in the warm body assay (in words) [1] | EAG response of antenna [2] | other results
C=C(C)C1CC=C(C)C(=O)C1 (single isomer, unassigned; (+)) [(+) carvone, carvone] | only weak or no repellent activity at all | – | –
C=C(C)[C@H]1CC=C(C)CC1 [(+) limonene, limonene] | only weak or no repellent activity at all | – | –
C=C(C)[C@@H]1CC=C(C)C(=O)C1 [(−) carvone, carvone] | only weak or no repellent activity at all | – | –
CC(C)c1ccc(C=O)cc1 [cumin aldehyde] | only weak or no repellent activity at all | capable of triggering EAG responses | median repellency (%) at 20 nmol/cm2 ([1]; Anopheles gambiae, 2 min): 13.5%
CC(C)c1ccc(C(=O)O)cc1 [cuminic acid] | activity comparable to DEET | capable of triggering EAG responses | median repellency (%) at 20 nmol/cm2 [1, 4]: 74.2%; Median of landings ([3]; 20 nmol/cm^2): 16; Median of landings ([3]; 200 nmol/cm^2): 13; repellence of sand flies from the warm body (in words) ([3]; 20 and 200 nmol/cm^2): as effective as DEET at 20 nmol/cm^2
C=CC(C)(O)CCC=C(C)C (centres unmarked) [linalool] | properties suggesting attractant activity | capable of triggering EAG responses | –
COC(=O)C=Cc1ccccc1 [methyl-trans-cinnamate, methyl 3-phenylprop-2-enoate] | only weak or no repellent activity at all | capable of triggering EAG responses | median repellency (%) at 20 nmol/cm2 [1, 4]: 14%
Cc1ccc(C(C)C)cc1 [p-cymene] | properties suggesting attractant activity | capable of triggering EAG responses | –
CC1=C(C=O)C(C)(C)CC=C1 [safranal] | only weak or no repellent activity at all | capable of triggering EAG responses | –
Cc1ccc(C(C)C)c(O)c1 [thymol, 2-Isopropyl-5-methylphenol] | activity comparable to DEET | – | median repellency (%) at 31.5 nmol/cm2 ([1]; Anopheles gambiae, 2 min, 31.5 nmole per cm^2): 89.7%
CC1=CCC2CC1C2(C)C (stereo not drawn) [α-pinene] | only weak or no repellent activity at all | capable of triggering EAG responses | –
C=C1CC/C=C(\C)CC[C@@H]2[C@@H]1CC2(C)C [β-caryophyllene] | only weak or no repellent activity at all | capable of triggering EAG responses | –
C=C1CCC2CC1C2(C)C (stereo not drawn) [β-pinene] | only weak or no repellent activity at all | capable of triggering EAG responses | –
CC1=CCC(C(C)C)=CC1 [γ-terpinene] | only weak or no repellent activity at all | – | –
CC(C)=C1CCC(C)(O)CC1 (centres unmarked) [γ-terpineol] | – | capable of triggering EAG responses | –
limonene [(−) limonene] | only weak or no repellent activity at all | – | –
